Literature values in patent US11034961B2 (priority 2015, dated 2021).

How the values were obtained:
[1] = administered by IV
[2] = infusion into the scala tympani

Q: Which “sufferers in whom the noise associated with tinnitus is reduced or eliminated” value [1] does the source give for `CCN(CC)CC(=O)Nc1c(C)cccc1C` [Lidocaine] here?
A: 60-80%

Q: Which “Meniere's disease symptoms” value [2] does the source give for `Cc1ccccc1C(=O)Nc1ccc(C(=O)N2CCCC(N(C)C)c3ccccc32)cc1` (centres unmarked) [OPC-31260] here?
A: marked reduction
